HELM strings list units from the 5' end as sugar, base in round brackets, then linkage (d deoxyribose, r ribose, m 2'-O-methyl, p phosphodiester). Strings are as the collection lists them; they lack the last nucleoside at the 3' end of the tested compound. [moe] = 2'-O-(2-methoxyethyl) (MOE); [sp] = phosphorothioate linkage; [m5C] = 5-methylcytosine
Molecular target: SMN2
Assay: mouse, dose not given
Settings: ASO

Substance | 3 h FOB score [score 0-7]
RNA1{[moe]([m5C])[sp].[moe](A)[sp].[moe]([m5C])[sp].[moe](T)[sp].[moe](T)[sp].[moe](T)[sp].[moe]([m5C])[sp].[moe](A)[sp].[moe](T)[sp].[moe](A)[sp].[moe](A)p.[moe](T)[sp].[moe](G)[sp].[moe]([m5C])[sp].[moe](T)[sp].[moe](G)[sp].[moe](G)}$$$$ (last 3' nucleoside missing) | 0.25
RNA1{[moe]([m5C])[sp].[moe](A)[sp].[moe]([m5C])[sp].[moe](T)[sp].[moe](T)[sp].[moe](T)[sp].[moe]([m5C])[sp].[moe](A)[sp].[moe](T)[sp].[moe](A)[sp].[moe](A)p.[moe](T)[sp].[moe](G)[sp].[moe]([m5C])[sp].[moe](T)p.[moe](G)[sp].[moe](G)}$$$$ (last 3' nucleoside missing) | 0
RNA1{[moe]([m5C])[sp].[moe](A)[sp].[moe]([m5C])[sp].[moe](T)[sp].[moe](T)[sp].[moe](T)[sp].[moe]([m5C])[sp].[moe](A)[sp].[moe](T)[sp].[moe](A)[sp].[moe](A)p.[moe](T)p.[moe](G)p.[moe]([m5C])p.[moe](T)[sp].[moe](G)[sp].[moe](G)}$$$$ (last 3' nucleoside missing) | 0
RNA1{[moe]([m5C])[sp].[moe](A)[sp].[moe]([m5C])[sp].[moe](T)[sp].[moe](T)[sp].[moe](T)[sp].[moe]([m5C])[sp].[moe](A)[sp].[moe](T)[sp].[moe](A)p.[moe](A)p.[moe](T)[sp].[moe](G)[sp].[moe]([m5C])[sp].[moe](T)[sp].[moe](G)[sp].[moe](G)}$$$$ (last 3' nucleoside missing) | 1
RNA1{[moe]([m5C])[sp].[moe](A)[sp].[moe]([m5C])[sp].[moe](T)[sp].[moe](T)[sp].[moe](T)[sp].[moe]([m5C])[sp].[moe](A)[sp].[moe](T)p.[moe](A)[sp].[moe](A)[sp].[moe](T)[sp].[moe](G)[sp].[moe]([m5C])[sp].[moe](T)[sp].[moe](G)[sp].[moe](G)}$$$$ (last 3' nucleoside missing) | 0
RNA1{[moe]([m5C])[sp].[moe](A)[sp].[moe]([m5C])[sp].[moe](T)[sp].[moe](T)[sp].[moe](T)[sp].[moe]([m5C])[sp].[moe](A)[sp].[moe](T)p.[moe](A)[sp].[moe](A)[sp].[moe](T)[sp].[moe](G)[sp].[moe]([m5C])[sp].[moe](T)p.[moe](G)[sp].[moe](G)}$$$$ (last 3' nucleoside missing) | 0
RNA1{[moe]([m5C])[sp].[moe](A)[sp].[moe]([m5C])[sp].[moe](T)[sp].[moe](T)[sp].[moe](T)[sp].[moe]([m5C])[sp].[moe](A)[sp].[moe](T)p.[moe](A)p.[moe](A)p.[moe](T)p.[moe](G)[sp].[moe]([m5C])[sp].[moe](T)[sp].[moe](G)[sp].[moe](G)}$$$$ (last 3' nucleoside missing) | 0
RNA1{[moe]([m5C])[sp].[moe](A)[sp].[moe]([m5C])[sp].[moe](T)[sp].[moe](T)[sp].[moe](T)[sp].[moe]([m5C])[sp].[moe](A)p.[moe](T)p.[moe](A)[sp].[moe](A)[sp].[moe](T)[sp].[moe](G)[sp].[moe]([m5C])[sp].[moe](T)[sp].[moe](G)[sp].[moe](G)}$$$$ (last 3' nucleoside missing) | 0
RNA1{[moe]([m5C])[sp].[moe](A)[sp].[moe]([m5C])[sp].[moe](T)[sp].[moe](T)[sp].[moe](T)[sp].[moe]([m5C])[sp].[moe](A)p.[moe](T)p.[moe](A)p.[moe](A)[sp].[moe](T)[sp].[moe](G)[sp].[moe]([m5C])[sp].[moe](T)[sp].[moe](G)[sp].[moe](G)}$$$$ (last 3' nucleoside missing) | 1
RNA1{[moe]([m5C])[sp].[moe](A)[sp].[moe]([m5C])[sp].[moe](T)[sp].[moe](T)[sp].[moe](T)[sp].[moe]([m5C])[sp].[moe](A)p.[moe](T)p.[moe](A)p.[moe](A)p.[moe](T)[sp].[moe](G)[sp].[moe]([m5C])[sp].[moe](T)[sp].[moe](G)[sp].[moe](G)}$$$$ (last 3' nucleoside missing) | 0
RNA1{[moe]([m5C])[sp].[moe](A)[sp].[moe]([m5C])[sp].[moe](T)[sp].[moe](T)[sp].[moe](T)[sp].[moe]([m5C])p.[moe](A)[sp].[moe](T)[sp].[moe](A)[sp].[moe](A)[sp].[moe](T)[sp].[moe](G)[sp].[moe]([m5C])[sp].[moe](T)[sp].[moe](G)[sp].[moe](G)}$$$$ (last 3' nucleoside missing) | 0
RNA1{[moe]([m5C])[sp].[moe](A)[sp].[moe]([m5C])[sp].[moe](T)[sp].[moe](T)[sp].[moe](T)[sp].[moe]([m5C])p.[moe](A)[sp].[moe](T)[sp].[moe](A)[sp].[moe](A)[sp].[moe](T)[sp].[moe](G)[sp].[moe]([m5C])[sp].[moe](T)p.[moe](G)[sp].[moe](G)}$$$$ (last 3' nucleoside missing) | 0
RNA1{[moe]([m5C])[sp].[moe](A)[sp].[moe]([m5C])[sp].[moe](T)[sp].[moe](T)[sp].[moe](T)[sp].[moe]([m5C])p.[moe](A)p.[moe](T)p.[moe](A)p.[moe](A)[sp].[moe](T)[sp].[moe](G)[sp].[moe]([m5C])[sp].[moe](T)[sp].[moe](G)[sp].[moe](G)}$$$$ (last 3' nucleoside missing) | 0
RNA1{[moe]([m5C])[sp].[moe](A)[sp].[moe]([m5C])[sp].[moe](T)[sp].[moe](T)[sp].[moe](T)[sp].[moe]([m5C])p.[moe](A)p.[moe](T)p.[moe](A)p.[moe](A)p.[moe](T)[sp].[moe](G)[sp].[moe]([m5C])[sp].[moe](T)[sp].[moe](G)[sp].[moe](G)}$$$$ (last 3' nucleoside missing) | 0
RNA1{[moe]([m5C])[sp].[moe](A)[sp].[moe]([m5C])[sp].[moe](T)[sp].[moe](T)[sp].[moe](T)[sp].[moe]([m5C])p.[moe](A)p.[moe](T)p.[moe](A)p.[moe](A)p.[moe](T)p.[moe](G)[sp].[moe]([m5C])[sp].[moe](T)[sp].[moe](G)[sp].[moe](G)}$$$$ (last 3' nucleoside missing) | 0
RNA1{[moe]([m5C])[sp].[moe](A)[sp].[moe]([m5C])[sp].[moe](T)[sp].[moe](T)[sp].[moe](T)p.[moe]([m5C])p.[moe](A)[sp].[moe](T)[sp].[moe](A)[sp].[moe](A)[sp].[moe](T)[sp].[moe](G)[sp].[moe]([m5C])[sp].[moe](T)[sp].[moe](G)[sp].[moe](G)}$$$$ (last 3' nucleoside missing) | 0
RNA1{[moe]([m5C])[sp].[moe](A)[sp].[moe]([m5C])[sp].[moe](T)[sp].[moe](T)[sp].[moe](T)p.[moe]([m5C])p.[moe](A)p.[moe](T)p.[moe](A)p.[moe](A)p.[moe](T)p.[moe](G)[sp].[moe]([m5C])[sp].[moe](T)[sp].[moe](G)[sp].[moe](G)}$$$$ (last 3' nucleoside missing) | 0
RNA1{[moe]([m5C])[sp].[moe](A)[sp].[moe]([m5C])[sp].[moe](T)[sp].[moe](T)p.[moe](T)[sp].[moe]([m5C])[sp].[moe](A)[sp].[moe](T)[sp].[moe](A)[sp].[moe](A)[sp].[moe](T)[sp].[moe](G)[sp].[moe]([m5C])[sp].[moe](T)[sp].[moe](G)[sp].[moe](G)}$$$$ (last 3' nucleoside missing) | 0.5
RNA1{[moe]([m5C])[sp].[moe](A)[sp].[moe]([m5C])[sp].[moe](T)[sp].[moe](T)p.[moe](T)[sp].[moe]([m5C])[sp].[moe](A)[sp].[moe](T)[sp].[moe](A)[sp].[moe](A)[sp].[moe](T)[sp].[moe](G)[sp].[moe]([m5C])[sp].[moe](T)p.[moe](G)[sp].[moe](G)}$$$$ (last 3' nucleoside missing) | 0
RNA1{[moe]([m5C])[sp].[moe](A)[sp].[moe]([m5C])[sp].[moe](T)[sp].[moe](T)p.[moe](T)p.[moe]([m5C])p.[moe](A)p.[moe](T)[sp].[moe](A)[sp].[moe](A)[sp].[moe](T)[sp].[moe](G)[sp].[moe]([m5C])[sp].[moe](T)[sp].[moe](G)[sp].[moe](G)}$$$$ (last 3' nucleoside missing) | 0
RNA1{[moe]([m5C])[sp].[moe](A)[sp].[moe]([m5C])[sp].[moe](T)p.[moe](T)p.[moe](T)[sp].[moe]([m5C])[sp].[moe](A)[sp].[moe](T)[sp].[moe](A)[sp].[moe](A)[sp].[moe](T)[sp].[moe](G)[sp].[moe]([m5C])[sp].[moe](T)[sp].[moe](G)[sp].[moe](G)}$$$$ (last 3' nucleoside missing) | 0
RNA1{[moe]([m5C])[sp].[moe](A)[sp].[moe]([m5C])p.[moe](T)[sp].[moe](T)[sp].[moe](T)[sp].[moe]([m5C])[sp].[moe](A)[sp].[moe](T)[sp].[moe](A)[sp].[moe](A)[sp].[moe](T)[sp].[moe](G)[sp].[moe]([m5C])[sp].[moe](T)[sp].[moe](G)[sp].[moe](G)}$$$$ (last 3' nucleoside missing) | 1
RNA1{[moe]([m5C])[sp].[moe](A)[sp].[moe]([m5C])p.[moe](T)[sp].[moe](T)[sp].[moe](T)[sp].[moe]([m5C])[sp].[moe](A)[sp].[moe](T)[sp].[moe](A)[sp].[moe](A)[sp].[moe](T)[sp].[moe](G)[sp].[moe]([m5C])[sp].[moe](T)p.[moe](G)[sp].[moe](G)}$$$$ (last 3' nucleoside missing) | 0
RNA1{[moe]([m5C])[sp].[moe](A)[sp].[moe]([m5C])p.[moe](T)[sp].[moe](T)[sp].[moe](T)[sp].[moe]([m5C])[sp].[moe](A)[sp].[moe](T)p.[moe](A)[sp].[moe](A)[sp].[moe](T)[sp].[moe](G)[sp].[moe]([m5C])[sp].[moe](T)p.[moe](G)[sp].[moe](G)}$$$$ (last 3' nucleoside missing) | 0
